Experimental data as given in ChEMBL document CHEMBL4118222, “Synthesis of C-ring-modified blebbistatin derivatives and evaluation of their myosin II ATPase inhibitory potency” (Bioorg Med Chem Lett, 2018).
Active and inactive are the calls of the source. The rule behind the calls is not given here.

Key:
[1] = Inhibition of rabbit skeletal muscle myosin 2 ATPase in presence of F-actin after 1 hr; design: species or system Oryctolagus cuniculus
Oryctolagus cuniculus = organism: Oryctolagus cuniculus; experiment: Inhibition of rabbit skeletal muscle myosin 2 ATPase in presence of F-actin at 100 uM after 1 hr

Row | IC50 [1] [µM] | inhibition (Oryctolagus cuniculus) | SMILES
1 | 0.95 | – | Cc1ccc2c(c1)C(=O)[C@]1(O)CCN(c3ccccc3)C1=N2
2 | – | inactive | C=CCOCC1CC2(O)C(=O)c3cc(C)ccc3N=C2N1c1ccccc1 (mixture of isomers)
3 | 75 | – | Cc1ccc2c(c1)C(=O)[C@]1(O)C[C@H](CO)N(c3ccccc3)C1=N2 (racemic)
4 | – | inactive | Cc1ccc2c(c1)C(=O)[C@]1(O)C[C@@H](CO)N(c3ccccc3)C1=N2 (racemic)
